Measurements as given in patent publication US11179435B2, “Hangover alleviating composition containing conjugate of sesamol and peptide as active ingredient” (CAREGEN CO., LTD., priority 2017, dated 2021).
Starred links: 1 amine or outer side, 2 acyl side, 3 side chain; linkers in the order of their positions; H or OH if unused. No end group written: not given here. Suc = O=C(CCC(=O)[*:2])[*:1]

What was measured:
Type in all cases: cell-based, human
ALDH1 = assay: RT-PCR mRNA expression in HepG2 cells; settings: 10 μM or 50 μM, 6 hours, compared with untreated control group
Method: (§1) In order to confirm an effect of increasing the expression of ADH and ALDH involved in the alcohol degradation process, liver carcinoma cells were treated with the two types of conjugates of the sesamol and the peptides prepared in [Preparation Example 2], respectively, and then RT-PCR was performed.
(§2) Specifically, HepG2 cells were inoculated in a 6-well plate at a density of 4×10^5 cells/well, and then incubated overnight. Thereafter, the two types of conjugates of the sesamol and the peptides prepared in [Preparation Example 2] were treated at a concentration of 10 μM or 50 μM, respectively, and incubated for 6 hours, and the cells were collected. Thereafter, the total RNA was isolated from the collected cells according to a manufacturer's protocol using Trizol (Invitrogen, USA), and then 1 μg of the isolated RNA was synthesized to cDNA according to a manufacturer's protocol using a cDNA synthesis kit (Intron, Korea). The cDNA was subjected to PCR using primers shown in Table 2 below, and then electrophoresed on a 5% agarose gel to confirm mRNA expression levels of ADH4, ALDH1, and ALDH2.

ADH4 = assay: RT-PCR mRNA expression in HepG2 cells; settings: 10 μM or 50 μM, 6 hours, compared with untreated control group
Method: as §1, §2

ALDH2 = assay: RT-PCR mRNA expression in HepG2 cells; settings: 10 μM or 50 μM, 6 hours, compared with untreated control group
Method: as §1, §2

[1] = test system: aldehyde dehydrogenase (ALDH); assay: ALDH activity assay in HepG2 cells treated with conjugate; settings: 50 μM or 100 μM, 24 hours, compared to untreated control group
Method: Alcohol was converted to acetaldehyde by alcohol dehydrogenase (ADH), an alcohol degrading enzyme, and the converted acetaldehyde was converted and degraded to acetate by aldehyde dehydrogenase (ALDH). Therefore, in order to confirm the effect of increasing the activity of ALDH involved in the alcohol degradation process, liver carcinoma cells were treated with the two types of conjugates of the sesamol and the peptides prepared in [Preparation Example 2], respectively, and then the ALDH activity assay was performed.
Specifically, liver hepatocellular carcinoma (HepG2) cells, which were human liver carcinoma cells, were inoculated into a 6-well plate at a density of 4×10^5 cells/well and then incubated overnight. Thereafter, the two types of conjugates of the sesamol and the peptides prepared in [Preparation Example 2] were treated at a concentration of 50 μM or 100 μM, respectively, and incubated for 24 hours, and the cells were collected and then the ALDH activity was analyzed using an ALDH activity assay kit (abcam, ab155893). Meanwhile, a positive control group was treated with 5 μM sulfolaphane.
For the ALDH activity assay, each of the collected cells was treated with an ALDH activity assay buffer included in the kit, and then lysed with a homogenizer under ice. […] Thereafter, the ALDH activity was calculated using the following [Equation 1]. […]

## SEQ ID NO: 1: Sesamol linked via succinyl linker to the N-terminus of peptide SIPCKLQSG (SEQ ID NO: 1) ({sesamol-Suc}-SIPCKLQSG)
ALDH1
  mRNA expression of ALDH1: significantly increased
ADH4
  mRNA expression of ADH4: significantly increased
ALDH2
  mRNA expression of ALDH2: significantly increased
[1]
  ALDH activity: increased in a concentration-dependent manner
